Laboratory results taken from patent US20050124645A1, “Methods and compositions for increasing CD4lymphocyte immune responsiveness” (priority 1998, published 2005).
“Also recorded” adds a separate entry of the source.

Tests used:
[1] = biological target: T1, protein tyrosine phosphatase (PTP), particularly PTP1B (Homo sapiens, UniProt P18031); settings: Pathak & Yi 2001; cited from earlier work
T1 sequence (P18031 1-435): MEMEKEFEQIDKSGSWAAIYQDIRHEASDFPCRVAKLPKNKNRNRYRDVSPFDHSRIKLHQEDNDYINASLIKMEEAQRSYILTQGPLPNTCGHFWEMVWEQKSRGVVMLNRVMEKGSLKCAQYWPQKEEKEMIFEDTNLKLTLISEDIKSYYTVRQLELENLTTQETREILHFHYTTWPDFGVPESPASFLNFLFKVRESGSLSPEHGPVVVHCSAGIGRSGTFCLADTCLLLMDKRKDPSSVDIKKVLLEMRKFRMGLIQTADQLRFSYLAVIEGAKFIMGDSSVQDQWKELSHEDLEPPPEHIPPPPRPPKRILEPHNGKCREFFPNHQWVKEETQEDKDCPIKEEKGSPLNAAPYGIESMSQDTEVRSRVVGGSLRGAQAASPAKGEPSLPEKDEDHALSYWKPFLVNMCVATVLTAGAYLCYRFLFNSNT

[2] = test system: purified human CD4+ T cells; experiment: Anti-TCR induced proliferation ([3H]-thymidine) of CD4-ligated purified CD4+ T cells, rescue by cytokines; assay type: cell-based; settings: for reversal of inhibition of proliferation at higher cytokine concentrations: up to 80 U/ml, data not shown; for anti-TCR induced proliferative response of CD4-ligated T cells: 20 U/ml cytokine, gp120 or anti-CD4 ligation before plate-bound anti-TCR, 3 days, FIG. 1
Experimental: Heparinized venous blood from healthy adult human donors was separated on a Ficoll-Paque (Pharmacia Biotech) gradient to obtain lymphocytes. CD4^+ T cells were isolated by incubation with anti-CD8 mAb (OKT8, 20 Ag/ml, ATCC), followed by negative selection on goat anti-mouse IgG coated Immulan beads (Biotecx Laboratories).
Specifically, the purified CD4^+ T cells in balanced salts solution were incubated with or without gp120 (rgp120SF2, 10 μg/ml) and crosslinked with anti-gp120 antibody (1:250 dilution) or anti-CD4 mAb (anti-CD4, Leu-3α, 20 μg/ml) for 1 hr at 37° C.
Proliferation in response to plate-bound anti-TCR was determined as follows. Cells were washed, resuspended in RPMI-1640 culture media (GIBCO) supplemented with 10% fetal bovine serum (FBS, Gemini BioProducts) and 1×10^5 cells were added to triplicate wells of an anti-T cell receptor monoclonal antibody-coated (anti-TCR, BMA-031, 50 μg/ml) 96-well plate (Becton Dickinson). […] Culture plates were incubated for 3 days at 37° C. with 1 μCi/Well [^3H]-thymidine (NEN) present during the final 5 hours of culture. The cells were harvested and processed to determine ^3H-thymidine incorporation.

IL-2R (α-chain, CD25) = experiment: Activation-induced IL-2R (CD25) expression on CD4 primed T cells by flow cytometry; assay type: cell-based, human; settings: 20 U/ml cytokine; 24 hours; FIGS. 2A, 2B
Experimental: Expression of high affinity IL-2R (CD25) was also analyzed in CD4 primed T cells. To determine the expression of IL-2R (α-chain, CD25), the culture plates were set up as described in Example 1 and incubated at 37° C. for 24 hours. 2×10^5 cells were stained with FITC-conjugated anti-CD25 mAb (Pharmingen) and analyzed by flow cytometry (Coulter XL).

JAK3 [3] = experiment: JAK3 expression (Western blot) in mock- or HIV-1 NL4-3-infected CD4+ T cell PHA blasts; assay type: cell-based, human; settings: 20 U/ml, 48 hours
Experimental: In this experiment, purified human CD4^+ T cells isolated as described above and activated with PHA for 3 days were infected for 4 days with a laboratory cloned strain of HIV-1, NL4-3. […] Cells were harvested and lysed with TBS/1% NP40 and analyzed on 7.5% SDS PAGE. Western blots using anti-JAK3 or anti-actin were prepared as described in Example 3.

JAK3 [4] = experiment: JAK3 expression and tyrosine phosphorylation (immunoprecipitation/Western blot) in TCR/CD3-stimulated CD4+ T cells with or without prior CD4 ligation; assay type: cell-based, human; settings: for reversal of gp120 or anti-CD4 induced inhibition of JAK3 expression and activation: 20 U/ml cytokine, FIG. 4
Experimental: In this experiment, the present inventors determined the activation status of JAK3 in CD4^+ T cells which were activated through the TCR subsequent to CD4 ligation.
Briefly, the purified CD4^+ T cells were incubated with or without gp120 and anti-gp120 antibody or anti-CD4 for 1 hour at 37° C. 3×10^6 cells per well were incubated at 37° C. in an anti-CD3 mAb coated (anti-CD3, OKT3, 50 μg/ml, ATCC) 12-well plate. Cells were harvested after various times and lysed in Tris-buffered saline (TBS) containing 1% NP-40, phosphatase inhibitors and protease inhibitors. After micro centrifugation, the post-nuclear lysates were used for immunoprecipitation with anti-JAK3 polyclonal antibody (anti-JAK3, 10 μl, Santa Cruz Biotechnology). The antibody-protein complex was pelleted using Sepharose-conjugated Protein A (Sigma) boiled in sample buffer (0.4% SDS, 3% glycerol and 1% β-mercaptoethanol (2-ME)) and the proteins were separated by 7.5% SDS-PAGE. The proteins were transferred to nitrocellulose membrane and immunoblotted with antiphosphotyrosine mAb (anti-P-Tyr, Ab-2, Oncogene Science) Positive protein bands were detected with horseradish peroxidase (HRP)-conjugated goat anti-mouse IgG (Jackson ImmunoResearch) and SuperSignal Substrate (SSS, Pierce). Membranes were stripped with 62.5 mM Tris-HCl, pH 6.7, containing 10 mM 2-ME, and 2% SDS, immunoblotted with anti-JAK3, and developed with HRP-conjugated protein A and SSS.
In some experiments, 1.5×10^6 cell equivalents of post-nuclear lysate were boiled with sample buffer and separated by 7.5% SDS-PAGE. Nitrocellulose membrane was immunoblotted with (anti-JAK3 and then stripped and immunoblotted with anti-actin mAb (anti-actin, Sigma), as described above. Optical density (O.D.) of positive bands was measured with the Stratagene Eagle Eye II.

CD4 = CD4 (Homo sapiens, UniProt P01730); settings: ligation of CD4; literature; cited from earlier work
JAK1 = JAK1 activation in T cells stimulated through TCR/CD3 with or without prior CD4 ligation; assay type: cell-based, human; settings: CD4 ligation before TCR/CD3 stimulation; FIG. 5
Description: Another Janus family kinase, JAK1, associates with the β chain of IL-2R and with the α chains of IL-4R and IL-7R, and is autophosphorylated upon activation (Johnston et al. (1994) Nature, 370:151; and Russell et al. (1994) Science, 270:797).

HIV-1 LTR = experiment: HIV-1 LTR-luciferase activity in resting CD4+ T cells; assay type: cell-based; settings: STAT5 expression vector or IL-2 for 1 hour, FIG. 17
Description: Resting CD4^+ T cells were transfected with a construct containing luciferase under the control of HIV-1 LTR or a control luciferase construct (Dual-luciferase© Reporter Assay System, Promega, Madison, Wis.). The cells were also optionally transfected with an expression vector encoding STAT5. […] The luciferase activity of the cellular lysates was subsequently measured.

For O.O.O.O.O.O.O.O.O.O=C([O-])[C@@H]1[O][Sb]2([O-])([O][Sb]34([OH])[O][C@H]([C@H](O)CO)[C@H]([O]3)[C@H](C(=O)[O-])[O]4)[O][C@H]([C@H](O)CO)[C@@H]1[O]2.[Na+].[Na+].[Na+] [pentostam, stibogluconate sodium], the “cellular protein tyrosine phosphatase (PTP) inhibition, particularly PTP1B” value [1] is given as “inhibit”.

In the case of “IL-6: cytokine that binds to receptors on T cells which lack γc”, the “reversal of inhibition of proliferation at higher cytokine concentrations” value [2] is reported as “did not reverse the inhibition of proliferation”.

For “IL-7: cytokine which binds to receptors on T cells having γc; Genzyme”, the “activation-induced CD25 expression on CD4 primed T cells” value (IL-2R (α-chain, CD25)) was “restored activation-induced CD25 expression”, the “JAK3 expression in anti-CD3 stimulated HIV infected T cells” value (JAK3 [3]; versus stimulated HIV-infected cells without cytokine) was “significantly increased; also recorded: increases JAK3 expression” and the “JAK3 expression in anti-CD3 stimulated mock-infected T cells” value (JAK3 [3]; versus stimulated cells without cytokine) was “increased JAK3 expression slightly”. For the same molecule, the “anti-TCR induced proliferative response of CD4-ligated T cells” value [2] was “restored the proliferative response” and the “reversal of gp120 or anti-CD4 induced inhibition of JAK3 expression and activation” value (JAK3 [4]) was “completely reversed”.

In the case of “gp120: HIV surface glycoprotein, crosslinked with anti-gp120 antibody”, the “TCR/CD3-induced IL-2R expression, IL-2 production, and proliferation” value (CD4) is listed as “inhibit”, the “activation status of JAK1” value (JAK1) is listed as “did not significantly change” and the “extent of inhibition of JAK3 expression and activation” value (JAK3 [4]; CD4 ligation before anti-CD3 stimulation, FIG. 3A) is listed as “incomplete”. The “TCR/CD3-induced expression and phosphorylation of JAK3” value (JAK3 [4]; CD4 ligation before anti-CD3 stimulation, FIGS. 3A, 3B) was “inhibits”.

B1: IL-4: cytokine which binds to receptors on T cells having γc; R&D Systems (protein, UniProt P05112 25-153, looked up)
Interleukin-4: HKCDITLQEIIKTLNSLTEQKTLCTELTVTDIFAASKNTTEKETFCRAATVLRQFYSHHEKDTRCLGATAQQFHRHKQLIRFLKRLDRNLWGLAGLNSCPVKEANQSTLENFLERLKTIMREKYSKCSS
With B1 the “activation-induced CD25 expression on CD4 primed T cells” value (IL-2R (α-chain, CD25)) was “restored activation-induced CD25 expression”, the “anti-TCR induced proliferative response of CD4-ligated T cells” value [2] was “restored the proliferative response” and the “reversal of gp120 or anti-CD4 induced inhibition of JAK3 expression and activation” value (JAK3 [4]) was “completely reversed”.

B2: IL-12: cytokine that binds to receptors on T cells which lack γc (protein, UniProt P29459 23-219; P29460 23-328, looked up)
Interleukin-12 subunit alpha: RNLPVATPDPGMFPCLHHSQNLLRAVSNMLQKARQTLEFYPCTSEEIDHEDITKDKTSTVEACLPLELTKNESCLNSRETSFITNGSCLASRKTSFMMALCLSSIYEDLKMYQVEFKTMNAKLLMDPKRQIFLDQNMLAVIDELMQALNFNSETVPQKSSLEEPDFYKTKIKLCILLHAFRIRAVTIDRVMSYLNAS
Interleukin-12 subunit beta: IWELKKDVYVVELDWYPDAPGEMVVLTCDTPEEDGITWTLDQSSEVLGSGKTLTIQVKEFGDAGQYTCHKGGEVLSHSLLLLHKKEDGIWSTDILKDQKEPKNKTFLRCEAKNYSGRFTCWWLTTISTDLTFSVKSSRGSSDPQGVTCGAATLSAERVRGDNKEYEYSVECQEDSACPAAEESLPIEVMVDAVHKLKYENYTSSFFIRDIIKPDPPKNLQLKPLKNSRQVEVSWEYPDTWSTPHSYFSLTFCVQVQGKSKREKKDRVFTDKTSATVICRKNASISVRAQDRYYSSSWSEWASVPCS
With B2 the “reversal of inhibition of proliferation at higher cytokine concentrations” value [2] was “did not reverse the inhibition of proliferation”.

B3: STAT5: over-expressed from an expression vector encoding STAT5 (protein, UniProt P42229 1-794, looked up)
Signal transducer and …: MAGWIQAQQLQGDALRQMQVLYGQHFPIEVRHYLAQWIESQPWDAIDLDNPQDRAQATQLLEGLVQELQKKAEHQVGEDGFLLKIKLGHYATQLQKTYDRCPLELVRCIRHILYNEQRLVREANNCSSPAGILVDAMSQKHLQINQTFEELRLVTQDTENELKKLQQTQEYFIIQYQESLRIQAQFAQLAQLSPQERLSRETALQQKQVSLEAWLQREAQTLQQYRVELAEKHQKTLQLLRKQQTIILDDELIQWKRRQQLAGNGGPPEGSLDVLQSWCEKLAEIIWQNRQQIRRAEHLCQQLPIPGPVEEMLAEVNATITDIISALVTSTFIIEKQPPQVLKTQTKFAATVRLLVGGKLNVHMNPPQVKATIISEQQAKSLLKNENTRNECSGEILNNCCVMEYHQATGTLSAHFRNMSLKRIKRADRRGAESVTEEKFTVLFESQFSVGSNELVFQVKTLSLPVVVIVHGSQDHNATATVLWDNAFAEPGRVPFAVPDKVLWPQLCEALNMKFKAEVQSNRGLTKENLVFLAQKLFNNSSSHLEDYSGLSVSWSQFNRENLPGWNYTFWQWFDGVMEVLKKHHKPHWNDGAILGFVNKQQAHDLLINKPDGTFLLRFSDSEIGGITIAWKFDSPERNLWNLKPFTTRDFSIRSLADRLGDLSYLIYVFPDRPKDEVFSKYYTPVLAKAVDGYVKPQIKQVVPEFVNASADAGGSSATYMDQAPSPAVCPQAPYNMYPQNPDHVLDQDGEFDLDETMDVARHVEELLRRPMDSLDSRLSPPAGLFTSARGSLS
With B3 the “activity from the HIV-1 LTR (luciferase activity)” value (HIV-1 LTR) was “increased activity”.
